This passage reports IC50 results from US20250154115A1, “ARYLBENZOISOXAZOLE COMPOUNDS AS IP6K AND IPMK INHIBITORS AND METHODS OF USE THEREOF” (THE UNIVERSITY OF NORTH CAROLINA AT CHAPEL HILL, priority 2022, published 2025).

Assay [1] deals with IP6K1 (Homo sapiens (Human), UniProt Q92551). In words: Enzyme-coupled assay of IP6K1 activity (Dipp1-coupled, malachite green Pi release). It is filed as biochemical. The note with it: enzyme-coupled assay; Table 4. The protocol:
(§1) […] The cells were disrupted using a constant cell disruption system (Constant Systems) under 20 kPsi.
(§2) Pi release was determined with a malachite green colorimetric assay.^45 Where indicated, TNP (Cayman Chemical) was added to the assays (FIG. 2A-E).

Assay [2] addresses IP6K2 (Homo sapiens (Human), UniProt Q9UHH9). Kind of assay: Enzyme-coupled assay of IP6K2 activity (Dipp1-coupled, malachite green Pi release). It is filed as biochemical. The note with it: enzyme-coupled assay; Table 4. The protocol: as §1, §2

Sequence of IP6K1 (Q92551 whole entry): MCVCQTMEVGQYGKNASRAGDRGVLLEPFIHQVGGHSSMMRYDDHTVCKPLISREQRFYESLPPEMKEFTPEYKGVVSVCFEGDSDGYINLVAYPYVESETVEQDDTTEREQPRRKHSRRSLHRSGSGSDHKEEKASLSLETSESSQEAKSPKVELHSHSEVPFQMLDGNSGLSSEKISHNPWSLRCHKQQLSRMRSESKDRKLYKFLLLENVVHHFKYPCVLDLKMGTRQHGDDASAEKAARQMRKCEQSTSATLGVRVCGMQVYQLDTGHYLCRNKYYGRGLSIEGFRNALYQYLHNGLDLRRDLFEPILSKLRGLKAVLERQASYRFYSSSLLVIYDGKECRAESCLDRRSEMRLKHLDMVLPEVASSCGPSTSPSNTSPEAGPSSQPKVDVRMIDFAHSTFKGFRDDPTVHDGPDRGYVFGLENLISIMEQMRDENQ
Sequence of IP6K2 (Q9UHH9 whole entry): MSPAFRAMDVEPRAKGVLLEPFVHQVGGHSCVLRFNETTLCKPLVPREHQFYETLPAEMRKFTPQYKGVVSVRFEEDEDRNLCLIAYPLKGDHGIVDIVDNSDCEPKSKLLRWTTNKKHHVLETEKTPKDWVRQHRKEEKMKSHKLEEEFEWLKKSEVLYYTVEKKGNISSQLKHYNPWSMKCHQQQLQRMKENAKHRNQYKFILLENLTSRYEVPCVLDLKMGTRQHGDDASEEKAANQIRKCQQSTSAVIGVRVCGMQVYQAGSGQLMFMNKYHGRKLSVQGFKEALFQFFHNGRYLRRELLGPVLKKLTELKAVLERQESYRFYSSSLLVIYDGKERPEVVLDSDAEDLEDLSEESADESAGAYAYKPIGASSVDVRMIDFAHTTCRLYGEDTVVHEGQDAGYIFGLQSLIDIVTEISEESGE

For the molecule `CC1(C(=O)N2CCC(Oc3cccc(-c4onc5ccc(-c6nnn[nH]6)cc45)c3)CC2)COC1` [Compound 93], the IC50 (usually the midpoint of a concentration-inhibition curve) in assay [1] lay within 100 to 1000 nM; in assay [2] it was 10 to 100 nM.

For `O=C(C1CCCC1)N1CCC(Oc2cccc(-c3onc4ccc(-c5nnn[nH]5)cc34)c2)CC1` [Compound 94], the half-inhibitory concentration (IC50) in assay [1] and in assay [2] was 10 to 100 nM in each case.

Regarding `Nc1cccc(-c2ccc(-c3onc4ccc(-c5nnn[nH]5)cc34)cc2)c1` [Compound 95], the IC50 in assay [1] and in assay [2] was 10 to 100 nM each time.

As to `CC(C)(C)OC(=O)Nc1cccc(-c2cccc(-c3onc4ccc(-c5nnn[nH]5)cc34)c2)c1` [Compound 96], the IC50 in assay [1] and in assay [2] was 10 to 100 nM each time.

Take `Nc1cccc(-c2cccc(-c3onc4ccc(-c5nnn[nH]5)cc34)c2)c1` [Compound 97]: the IC50 in assay [1] and in assay [2] was 10 to 100 nM each time.

As to `O=C(Nc1ccc(-c2onc3ccc(-c4nnn[nH]4)cc23)cc1)C1CCCCC1` [Compound 98], in assay [1], the half-inhibitory concentration (IC50) fell in the range of 100 to 1000 nM.

As to `O=C(Nc1ccc(-c2onc3ccc(-c4nnn[nH]4)cc23)cc1)C1CCNCC1` [Compound 99], the IC50 in assay [1] lay within 100 to 1000 nM.

Molecule `O=C(Nc1ccc(-c2onc3ccc(-c4nnn[nH]4)cc23)cc1)[C@@H]1CCCN1` [Compound 100] showed a 50% inhibitory concentration (IC50) in assay [1] of 100 to 1000 nM.

Consider `O=C(Nc1ccc(-c2onc3ccc(-c4nnn[nH]4)cc23)cc1)C1CCNC1` (stereo not drawn) [Compound 101], for which the IC50 in assay [1] was in the range of 100 to 1000 nM.

As for `c1cc(-c2onc3ccc(-c4nnn[nH]4)cc23)cc(C2CCNCC2)c1` [Compound 104], the IC50 in assay [1] lay in the range of 100 to 1000 nM.

As for `CC(=O)N1CCC(c2cccc(-c3onc4ccc(-c5nnn[nH]5)cc34)c2)CC1` [Compound 106], the IC50 in assay [1] was in the range of 10 to 100 nM.

In turn, `c1cc(-c2onc3ccc(-c4nnn[nH]4)cc23)cc(C2CCN(CC3CC3)CC2)c1` [Compound 107] registered an IC50 in assay [1] of 10 to 100 nM.

Regarding `CC1(C(=O)N2CCC(c3cccc(-c4onc5ccc(-c6nnn[nH]6)cc45)c3)CC2)COC1` [Compound 108], the IC50 in assay [1] is 100 to 1000 nM.

`CC(C)C(=O)N1CCC(c2cccc(-c3onc4ccc(-c5nnn[nH]5)cc34)c2)CC1` [Compound 109] showed a 50% inhibitory concentration (IC50) in assay [1] of 10 to 100 nM.

Turning to `O=C1CC(C(=O)N2CCC(c3cccc(-c4onc5ccc(-c6nnn[nH]6)cc45)c3)CC2)C1` [Compound 110], the IC50 in assay [1] lay within 10 to 100 nM.

`O=C(C1CC1)N1CCC(c2cccc(-c3onc4ccc(-c5nnn[nH]5)cc34)c2)CC1` [Compound 111] gave a half-maximal inhibitory concentration (IC50) in assay [1] of 10 to 100 nM.

`O=C(N1CCC(c2cccc(-c3onc4ccc(-c5nnn[nH]5)cc34)c2)CC1)C1(F)CC1` [Compound 112] displayed a half-maximal inhibitory concentration (IC50) in assay [1] of 10 to 100 nM.

For the molecule `c1cc(-c2onc3ccc(-c4nnn[nH]4)cc23)cc(C2CCN(C3CC4(CCC4)C3)CC2)c1` [Compound 113], the IC50 in assay [1] was 100 to 1000 nM.

On to `c1cc(-c2onc3ccc(-c4nnn[nH]4)cc23)cc(C2CCN(C3CCCC3)CC2)c1` [Compound 114], for which the IC50 in assay [1] was 100 to 1000 nM.

The molecule `CC(C)(C)OC(=O)N1CC(C(=O)N2CCC(c3cccc(-c4onc5ccc(-c6nnn[nH]6)cc45)c3)CC2)C1` [Compound 115] registered an IC50 in assay [1] of 100 to 1000 nM.

In the case of `CC(C)(C)OC(=O)N1CCCC1C(=O)N1CCC(c2cccc(-c3onc4ccc(-c5nnn[nH]5)cc34)c2)CC1` (stereo not drawn) [Compound 116], the 50% inhibitory concentration (IC50) in assay [1] lay within 100 to 1000 nM.

As for `c1cc2noc(-c3ccc(C4CCNCC4)cc3)c2cc1-c1nnn[nH]1` [Compound 117], the IC50 in assay [1] is 100 to 1000 nM.

Consider `c1cc2noc(-c3ccc(C4CCN(C5CCC5)CC4)cc3)c2cc1-c1nnn[nH]1` [Compound 118], for which the IC50 in assay [1] fell in the range of 10 to 100 nM.

In turn, `CC(=O)N1CCC(c2ccc(-c3onc4ccc(-c5nnn[nH]5)cc34)cc2)CC1` [Compound 119] gave an IC50 in assay [1] of 100 to 1000 nM.

The molecule `CC(C)C(=O)N1CCC(c2ccc(-c3onc4ccc(-c5nnn[nH]5)cc34)cc2)CC1` [Compound 120] came in with an IC50 in assay [1] of 100 to 1000 nM.

In assay [1], `CC1(C(=O)N2CCC(c3ccc(-c4onc5ccc(-c6nnn[nH]6)cc45)cc3)CC2)COC1` [Compound 121] had an IC50 of 100 to 1000 nM.

With `O=C(C1CC1)N1CCC(c2ccc(-c3onc4ccc(-c5nnn[nH]5)cc34)cc2)CC1` [Compound 122], the IC50 in assay [1] was 100 to 1000 nM.

On to `O=C(N1CCC(c2ccc(-c3onc4ccc(-c5nnn[nH]5)cc34)cc2)CC1)C1(F)CC1` [Compound 123], for which, in assay [1], the IC50 is 100 to 1000 nM.
